pIC50: −log10 of the molar value.
System: 616215-338-R-J1-PDC complex spheroid growth, % test/control
Experiment: Anticancer human tumor 616215-338-R-J1-PDC patient-derived colon adenocarcinoma cell line growth inhibition [Asc]
Settings: for pIC50: curve of first compound; for viability, T/C: stronger effect = lower value
Procedure, shortened: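 Complex spheroids combining tumor cells with HUVEC endothelial cells and human MSCs, at 37 degrees C, 5% CO2; agents tested alone or combined, half-log dilutions from at or near clinical Cmax, or 10 microM if Cmax unknown.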
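Also: spheroids exposed to agents for seven days before readout.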
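For viability, T/C in this document: 100% = DMSO vehicle control viability.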

## Cc1nc(N2CCC3(CC2)COC(C)C3N)c(CO)nc1Sc1ccnc(N)c1Cl (stereo not given) + CCN1C(C(=O)NC23CCC(C(=O)O)(CC2)CC3)C(c2cccc(Cl)c2F)C2(C(=O)Nc3cc(Cl)ccc32)C12CCCCC2
Second compound 0.03 µM
  pIC50: < 5.52
Second compound 0.0949 µM
  pIC50: < 5.52
Second compound 0.3 µM
  pIC50: 6.52
Second compound 0.949 µM
  pIC50: 6.47
Second compound 3 µM
  pIC50: 7.39
Second compound 0.03 µM, first compound 0.00949 µM
  viability, T/C: 99.4%
Second compound 0.03 µM, first compound 0.03 µM
  viability, T/C: 102%
Second compound 0.03 µM, first compound 0.0949 µM
  viability, T/C: 98.4%
Second compound 0.03 µM, first compound 0.3 µM
  viability, T/C: 91.8%
Second compound 0.03 µM, first compound 0.949 µM
  viability, T/C: 86.3%
Second compound 0.03 µM, first compound 3 µM
  viability, T/C: 74.4%
Second compound 0.0949 µM, first compound 0.00949 µM
  viability, T/C: 101%
Second compound 0.0949 µM, first compound 0.03 µM
  viability, T/C: 89.2%
Second compound 0.0949 µM, first compound 0.0949 µM
  viability, T/C: 84.1%
Second compound 0.0949 µM, first compound 0.3 µM
  viability, T/C: 87.2%
Second compound 0.0949 µM, first compound 0.949 µM
  viability, T/C: 80.5%
Second compound 0.0949 µM, first compound 3 µM
  viability, T/C: 64.7%
Second compound 0.3 µM, first compound 0.00949 µM
  viability, T/C: 69.8%
Second compound 0.3 µM, first compound 0.03 µM
  viability, T/C: 65.6%
Second compound 0.3 µM, first compound 0.0949 µM
  viability, T/C: 65.1%
Second compound 0.3 µM, first compound 0.3 µM
  viability, T/C: 49.4%
Second compound 0.3 µM, first compound 0.949 µM
  viability, T/C: 39.2%
Second compound 0.3 µM, first compound 3 µM
  viability, T/C: 35%
Second compound 0.949 µM, first compound 0.00949 µM
  viability, T/C: 65.9%
Second compound 0.949 µM, first compound 0.03 µM
  viability, T/C: 65%
Second compound 0.949 µM, first compound 0.0949 µM
  viability, T/C: 66.6%
Second compound 0.949 µM, first compound 0.3 µM
  viability, T/C: 48.3%
Second compound 0.949 µM, first compound 0.949 µM
  viability, T/C: 37.7%
Second compound 0.949 µM, first compound 3 µM
  viability, T/C: 24.8%
Second compound 3 µM, first compound 0.00949 µM
  viability, T/C: 53.3%
Second compound 3 µM, first compound 0.03 µM
  viability, T/C: 49.2%
Second compound 3 µM, first compound 0.0949 µM
  viability, T/C: 47.8%
Second compound 3 µM, first compound 0.3 µM
  viability, T/C: 38.8%
Second compound 3 µM, first compound 0.949 µM
  viability, T/C: 23.9%
Second compound 3 µM, first compound 3 µM
  viability, T/C: 11.6%

## CNC(C)C(=O)NC1CN(S(=O)(=O)c2cccc(S(=O)(=O)N3CCC4CCC(C(=O)NC(c5ccccc5)c5ccccc5)N4C(=O)C(NC(=O)C(C)NC)C3)c2)CCC2CCC(C(=O)NC(c3ccccc3)c3ccccc3)N2C1=O (stereo not given) + CCN1C(C(=O)NC23CCC(C(=O)O)(CC2)CC3)C(c2cccc(Cl)c2F)C2(C(=O)Nc3cc(Cl)ccc32)C12CCCCC2
Second compound 0.03 µM
  pIC50: < 6.00
Second compound 0.0949 µM
  pIC50: < 6.00
Second compound 0.3 µM
  pIC50: < 6.00
Second compound 0.949 µM
  pIC50: < 6.00
Second compound 3 µM
  pIC50: > 8.50
Second compound 0.03 µM, first compound 0.00316 µM
  viability, T/C: 95.2%
Second compound 0.03 µM, first compound 0.01 µM
  viability, T/C: 96.1%
Second compound 0.03 µM, first compound 0.0316 µM
  viability, T/C: 87.4%
Second compound 0.03 µM, first compound 0.1 µM
  viability, T/C: 97.2%
Second compound 0.03 µM, first compound 0.316 µM
  viability, T/C: 91%
Second compound 0.03 µM, first compound 1 µM
  viability, T/C: 87%
Second compound 0.0949 µM, first compound 0.00316 µM
  viability, T/C: 90.9%
Second compound 0.0949 µM, first compound 0.01 µM
  viability, T/C: 91.4%
Second compound 0.0949 µM, first compound 0.0316 µM
  viability, T/C: 95.7%
Second compound 0.0949 µM, first compound 0.1 µM
  viability, T/C: 86.6%
Second compound 0.0949 µM, first compound 0.316 µM
  viability, T/C: 76%
Second compound 0.0949 µM, first compound 1 µM
  viability, T/C: 81.3%
Second compound 0.3 µM, first compound 0.00316 µM
  viability, T/C: 74.1%
Second compound 0.3 µM, first compound 0.01 µM
  viability, T/C: 58.8%
Second compound 0.3 µM, first compound 0.0316 µM
  viability, T/C: 62.3%
Second compound 0.3 µM, first compound 0.1 µM
  viability, T/C: 58.9%
Second compound 0.3 µM, first compound 0.316 µM
  viability, T/C: 66.5%
Second compound 0.3 µM, first compound 1 µM
  viability, T/C: 61.2%
Second compound 0.949 µM, first compound 0.00316 µM
  viability, T/C: 71.5%
Second compound 0.949 µM, first compound 0.01 µM
  viability, T/C: 75.5%
Second compound 0.949 µM, first compound 0.0316 µM
  viability, T/C: 67.4%
Second compound 0.949 µM, first compound 0.1 µM
  viability, T/C: 63.5%
Second compound 0.949 µM, first compound 0.316 µM
  viability, T/C: 72.8%
Second compound 0.949 µM, first compound 1 µM
  viability, T/C: 78.5%
Second compound 3 µM, first compound 0.00316 µM
  viability, T/C: 41.1%
Second compound 3 µM, first compound 0.01 µM
  viability, T/C: 49.4%
Second compound 3 µM, first compound 0.0316 µM
  viability, T/C: 51.6%
Second compound 3 µM, first compound 0.1 µM
  viability, T/C: 48.7%
Second compound 3 µM, first compound 0.316 µM
  viability, T/C: 47.2%
Second compound 3 µM, first compound 1 µM
  viability, T/C: 52.8%

## COc1c(OCCCN2CCOCC2)ccc2c3n(c(=NC(=O)c4cnc(N)nc4)nc12)CCN3 + Cc1c(S(C)(=O)=O)c(-c2cc(F)cc(N3CCN(c4ccc(NS(=O)(=O)c5ccc(NC(CCN6CCC(C(=O)OCCCP(=O)(O)O)CC6)CSc6ccccc6)c(S(=O)(=O)C(F)(F)F)c5)cc4)CC3)c2)c(-c2ccc(Cl)cc2)n1C(C)C
Second compound 0.1 µM
  pIC50: 6.64
Second compound 0.316 µM
  pIC50: 6.73
Second compound 1 µM
  pIC50: 6.90
Second compound 3.16 µM
  pIC50: 7.44
Second compound 10 µM
  pIC50: > 8.50
Second compound 0.1 µM, first compound 0.00316 µM
  viability, T/C: 93.1%
Second compound 0.1 µM, first compound 0.01 µM
  viability, T/C: 100%
Second compound 0.1 µM, first compound 0.0316 µM
  viability, T/C: 100%
Second compound 0.1 µM, first compound 0.1 µM
  viability, T/C: 88.2%
Second compound 0.1 µM, first compound 0.316 µM
  viability, T/C: 35.5%
Second compound 0.1 µM, first compound 1 µM
  viability, T/C: 7.35%
Second compound 0.316 µM, first compound 0.00316 µM
  viability, T/C: 90.5%
Second compound 0.316 µM, first compound 0.01 µM
  viability, T/C: 96.7%
Second compound 0.316 µM, first compound 0.0316 µM
  viability, T/C: 105%
Second compound 0.316 µM, first compound 0.1 µM
  viability, T/C: 81.1%
Second compound 0.316 µM, first compound 0.316 µM
  viability, T/C: 22.2%
Second compound 0.316 µM, first compound 1 µM
  viability, T/C: 2.69%
Second compound 1 µM, first compound 0.00316 µM
  viability, T/C: 71.7%
Second compound 1 µM, first compound 0.01 µM
  viability, T/C: 78.3%
Second compound 1 µM, first compound 0.0316 µM
  viability, T/C: 78.6%
Second compound 1 µM, first compound 0.1 µM
  viability, T/C: 60.6%
Second compound 1 µM, first compound 0.316 µM
  viability, T/C: 7.07%
Second compound 1 µM, first compound 1 µM
  viability, T/C: 0.53%
Second compound 3.16 µM, first compound 0.00316 µM
  viability, T/C: 45.4%
Second compound 3.16 µM, first compound 0.01 µM
  viability, T/C: 53.2%
Second compound 3.16 µM, first compound 0.0316 µM
  viability, T/C: 63%
Second compound 3.16 µM, first compound 0.1 µM
  viability, T/C: 22.1%
Second compound 3.16 µM, first compound 0.316 µM
  viability, T/C: 1.45%
Second compound 3.16 µM, first compound 1 µM
  viability, T/C: 0.19%
Second compound 10 µM, first compound 0.00316 µM
  viability, T/C: 28.8%
Second compound 10 µM, first compound 0.01 µM
  viability, T/C: 30.3%
Second compound 10 µM, first compound 0.0316 µM
  viability, T/C: 35.4%
Second compound 10 µM, first compound 0.1 µM
  viability, T/C: 4.88%
Second compound 10 µM, first compound 0.316 µM
  viability, T/C: 0.24%
Second compound 10 µM, first compound 1 µM
  viability, T/C: 0.29%
